Publication PMC7596181 (Frontiers in Immunology, 2020)
pIC50: −log10 of the molar value.

Columns and labels:
[1] = biological target: T1, human TLR4 (Homo sapiens, UniProt O00206+Q9Y6Y9); assay: SEAP assay, agonist dose response in human TLR4 HEK-Blue reporter cells; type: cell-based; parameters: host or cells: HEK-Blue (HEK293-derived) reporter cells; conditions: human TLR4 HEK-Blue reporter cells
Description: Human and mouse HEK-Blue reporter cells express human or mouse CD14, MD2, and TLR4 and secreted embryonic alkaline phosphatase (SEAP) under control of a promoter with binding sites for NFκB and AP-1 transcription factors (InvivoGen cat. nos. hkb-htlr4 and hkb-mtlr4). Cells were cultured as directed by the supplier, with the exception that Glutamax (ThermoFisher cat. no. 10569010) was used in place of L-glutamine, and TrypLE Express (ThermoFisher cat. no. 12605010) was used to release adherent cells for each passage. BALB/c mouse RAW264.7 and human THP-1 cells (ATCC® cat. nos. TIB-71 and TIB-202) were cultured in DMEM (4.5 g/L D-Glucose with 2 mM L-glutamine, 1 mM sodium pyruvate, 100 U/ml penicillin and 100 μg/ml streptomycin) supplemented with 10% heat-inactivated FBS. THP-1 cells were exposed to phorbol-12-myristate-13-acetate (PMA, InvivoGen cat no. tlrl-pma), 5 ng/ml, for 48 h prior to treatment with TLR4 agonists. Bone marrow-derived dendritic cells (BMDCs) were generated using C57BL/6 mouse femurs following the exact method published by Lutz et al. ([29]) except that 5 rather than 20 ng/ml recombinant GM-CSF was used to differentiate the DC. Human peripheral blood […] (PBMCs) were prepared from venous blood of healthy volunteers that had been collected using sodium citrate as anti-coagulant, 20 ml of which was mixed with 15 ml calcium- and magnesium-free Hank’s Balanced Saline Solution (HBSS) and then laid over 6 ml Histopaque®-1077 (1.077 g/ml, Sigma-Aldrich cat no. 10771) for density gradient centrifugation. The buffy coat layer was collected by pipette, washed once in HBSS, once in serum-free RPMI-1640, and then the PBMCs were resuspended in RPMI-1640 supplemented with 100 U/ml penicillin, 100 µg/ml streptomycin, 1 mM Na-Pyruvate, 2 mM L-glutamine, 50 μM βME and 10% heat-inactivated, male AB human serum for culture.
(§1) SEAP assays were performed to evaluate the extent to which TLR4 signaling was activated in HEK-Blue reporter cells expressing mouse or human receptors (CD14, MD2 and TLR4). Reporter cells were harvested when 70–80% confluent and plated in 96-well, flat-bottom microtiter plates either 1 h, one day or two days (5 × 10^4, 4 × 10^4 or 2 × 10^4 cells/well, respectively) before addition of TLR4 agonists for 18–24 h. Culture supernatants were transferred to U-bottom microtiter plates, centrifuged and transferred again to microtiter plates to ensure reporter cells were not present. The culture supernatants were added to QUANTI-BLUE substrate following instructions provided by the manufacturer (InvivoGen cat. nos. rep-qbl or rep-qbs) and incubated at 37°C in a tissue culture incubator. At successive intervals beginning 10 min after mixing the supernatants and substrate, the plates were placed in an Emax plate reader (Molecular Devices LLC) and optical density was measured at visible light wavelength […] (OD650). The shortest incubations at which dose response curve fits produced maximal R^2 ‘goodness of fit’ values, as determined by GraphPad Prism software, were used for analysis.
Pharmacological profiles of the TLR4 reagents were generated by performing dose response curves in one of four formats. 1) Agonist potency and efficacy (EC50 and height of dose plateau, respectively) were measured by diluting TLR4 reagents successively in complete culture medium [DMEM or RPMI supplemented with fetal bovine serum (FBS) or RPMI supplemented with human serum, depending on cell-type]. Half-log step dilutions were performed in 96-well, U-bottom microtiter plates using a multichannel pipette to transfer and mix the suspensions, with fresh tips used for each dilution step. One-tenth (20 μl) volumes from wells of the dilution plate were then transferred to wells containing cells that had been plated in nine-tenth volumes (180 μl) of culture medium. […]

[2] = biological target: T1, human TLR4; assay: Inhibition curves (IC50 format): antagonist diluted in a fixed concentration of reference agonist, human TLR4 HEK-Blue SEAP; type: cell-based; parameters: host or cells: HEK-Blue (HEK293-derived) reporter cells; conditions: for inhibition of 3D-6A-PHAD stimulation: fixed 3D-6A-PHAD 300 nM; for pIC50: 95% CI given; for inhibition of PHAD stimulation: fixed PHAD 1 μM, 22 h
Description: as §1
Pharmacological profiles of the TLR4 reagents were generated by performing dose response curves in one of four formats. 1) Agonist potency and efficacy (EC50 and height of dose plateau, respectively) were measured by diluting TLR4 reagents successively in complete culture medium [DMEM or RPMI supplemented with fetal bovine serum (FBS) or RPMI supplemented with human serum, depending on cell-type]. Half-log step dilutions were performed in 96-well, U-bottom microtiter plates using a multichannel pipette to transfer and mix the suspensions, with fresh tips used for each dilution step. One-tenth (20 μl) volumes from wells of the dilution plate were then transferred to wells containing cells that had been plated in nine-tenth volumes (180 μl) of culture medium. 2) Mixed agonist–antagonist potency and efficacy were measured by mixing a TLR4 agonist with a candidate antagonist at a fixed ratio and then performing half-log step dilutions before treating HEK reporter cells. Analysis of values obtained from SEAP assays of culture supernatants was then performed as described for preparations containing agonist alone, above. 3) Competitive vs allosteric or non-competitive antagonist type was evaluated by diluting a reference agonist within a fixed concentration of a candidate inhibitor in half-log steps, treating HEK reporter cells, performing SEAP assays and then analyzing the data as described for agonist assays, above. Competitive antagonists are characterized by values that reach the same dose plateau as for a reference, full agonist, while shifting potency to higher EC50 values. […] 4) Inhibitory potency (IC50) was measured by diluting antagonists within a fixed concentration of a reference agonist, treating HEK reporter cells and performing SEAP assays as described.

T1 sequence (O00206 24-839): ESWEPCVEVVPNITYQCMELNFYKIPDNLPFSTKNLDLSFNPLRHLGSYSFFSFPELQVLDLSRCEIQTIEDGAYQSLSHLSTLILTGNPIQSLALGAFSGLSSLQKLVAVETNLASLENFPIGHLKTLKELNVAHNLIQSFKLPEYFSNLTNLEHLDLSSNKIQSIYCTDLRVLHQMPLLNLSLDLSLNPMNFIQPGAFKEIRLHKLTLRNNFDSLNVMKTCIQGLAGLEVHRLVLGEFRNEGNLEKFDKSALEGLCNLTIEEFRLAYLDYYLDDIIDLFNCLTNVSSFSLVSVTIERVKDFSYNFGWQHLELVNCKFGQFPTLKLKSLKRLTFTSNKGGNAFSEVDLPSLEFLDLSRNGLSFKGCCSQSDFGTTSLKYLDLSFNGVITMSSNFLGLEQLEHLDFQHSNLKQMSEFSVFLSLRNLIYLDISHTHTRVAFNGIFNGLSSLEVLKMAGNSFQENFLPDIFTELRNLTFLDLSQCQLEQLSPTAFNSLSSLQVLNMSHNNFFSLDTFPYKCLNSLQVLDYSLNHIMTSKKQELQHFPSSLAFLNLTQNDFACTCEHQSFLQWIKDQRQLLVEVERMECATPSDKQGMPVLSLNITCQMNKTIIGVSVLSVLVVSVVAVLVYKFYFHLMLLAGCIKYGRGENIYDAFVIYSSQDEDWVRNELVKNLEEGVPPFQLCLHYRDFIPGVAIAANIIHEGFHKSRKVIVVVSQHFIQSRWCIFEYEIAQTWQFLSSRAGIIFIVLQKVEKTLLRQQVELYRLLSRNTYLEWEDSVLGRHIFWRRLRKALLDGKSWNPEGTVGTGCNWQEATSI
T1 sequence (Q9Y6Y9 17-160 limits assumed): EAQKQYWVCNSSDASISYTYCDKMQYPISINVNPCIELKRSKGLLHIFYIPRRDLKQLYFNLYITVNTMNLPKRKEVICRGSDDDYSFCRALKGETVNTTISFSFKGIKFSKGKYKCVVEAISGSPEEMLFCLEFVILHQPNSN

SMILES | agonist profile [1] | inhibition of 3D-6A-PHAD stimulation [2] | extent of inhibition at high dose ([2]; fixed PHAD 30 nM, peak dose 31.6 μM) | pIC50 ([2]; fixed PHAD 30 nM) | inhibition of PHAD stimulation [2]
CCCCCCCCCCCC(=O)OC(CCCCCCCCCCC)CC(=O)NC1C(OCC2OC(O)C(NC(=O)CC(O)CCCCCCCCCCC)C(O)C2O)OC(CO)C(OP(=O)(O)O)C1OC(=O)CC(O)CCCCCCCCCCC (centres unmarked) [ML4A] | all but inactive | functioned as inhibitors | approach a bottom plateau rather than achieving full inhibition | 6.40 | showed inhibitory potential
CCCCCCCCCCCC(=O)OC(CCCCCCCCCCC)CC(=O)NC1C(OCC2OC(O)C(NC(=O)CC(O)CCCCCCCCCCC)C(O)C2O)OC(CO)C(OP(=O)(O)O)C1O (centres unmarked) [ML3] | largely inactive | functioned as inhibitors |  | 5.88 | showed inhibitory potential
CCCCCCCCCCCCCCCC(=O)OC(CCCCCCCCCCC)CC(=O)NC1C(O)OC(COC2OC(CO)C(OP(=O)(O)O)C(O)C2NC(=O)CC(CCCCCCCCCCC)OC(=O)CCCCCCCCCCC)C(O)C1O (centres unmarked) [ML4B] | largely inactive |  |  |  | only ML3 and ML4A showed inhibitory potential
